Reference: patent publication US11918563B1, “Methods and compositions for treatment of epileptic disorders” (Ovid Therapeutics Inc., priority 2016, dated 2024)
Like-named read-outs stand apart in the source and are kept apart here. Marks after values point to notes of the source that are not given here.

Tests used:
[1] = human, in vivo, po
[2] = test system: Li-Pilo model of status epilepticus; test: Ability to block benzodiazepine-resistant status epilepticus in the Li-Pilo model; format: in vivo, male Sprague Dawley rats
Procedure: At the conclusion of the behavioral observation period, a 3 mL injection of lactated Ringer's solution is administered to all surviving rats to replace any SE-induced fluid loss.
All animals in the study are retained for 24 hours following completion of the study for assessment of weight change.
Additional measures of effects, e.g., motor impairment, weight change post-SE, or survival from SE for 24 hrs are also recorded during the studies for all treatment conditions.

[3] = three-month efficacy study, insomnia; cited from earlier work
[4] = for Fe: geometric mean N=10
[5] = patients with a history of drug abuse; cited from earlier work
[6] = 0.5 mg/kg i.p. 30 min after first convulsive seizure, rats
[7] = 2 mg/kg i.p. 30 min after first convulsive seizure, rats
[8] = 5 mg/kg i.p. 30 min after first convulsive seizure, rats
[9] = 10 mg/kg i.p. 30 min after first convulsive seizure, rats
[10] = 20 mg/kg i.p. 30 min after first convulsive seizure, rats

| SMILES | Residual effect on primary endpoints Choice Reaction Time and Critical Flicker Fusion [1] | Protection (includes PK rats), percent [2, 6] | Protection (includes PK rats), protected/total [2, 6] | 24-hour Survival (excludes PK rats), percent ([2]; 0.5 mg/kg i.p., rats) | 24-hour Survival (excludes PK rats), survivors/total ([2]; 0.5 mg/kg i.p., rats) | Protection (includes PK rats), percent [2, 7] | Protection (includes PK rats), protected/total [2, 7] | 24-hour Survival (excludes PK rats), percent ([2]; 2 mg/kg i.p., rats) | 24-hour Survival (excludes PK rats), survivors/total ([2]; 2 mg/kg i.p., rats) | Protection (includes PK rats), percent [2, 8] | Protection (includes PK rats), protected/total [2, 8] | 24-hour Survival (excludes PK rats), percent ([2]; 5 mg/kg i.p., rats) | 24-hour Survival (excludes PK rats), survivors/total ([2]; 5 mg/kg i.p., rats) | Protection (includes PK rats), percent [2, 9] | Protection (includes PK rats), protected/total [2, 9] | 24-hour Survival (excludes PK rats), percent ([2]; 10 mg/kg i.p., rats) | 24-hour Survival (excludes PK rats), survivors/total ([2]; 10 mg/kg i.p., rats) | Protection (includes PK rats), percent [2, 10] | Protection (includes PK rats), protected/total [2, 10] | 24-hour Survival (excludes PK rats), percent ([2]; 20 mg/kg i.p., rats) | also measured |
| --- | --- | --- | --- | --- | --- | --- | --- | --- | --- | --- | --- | --- | --- | --- | --- | --- | --- | --- | --- | --- | --- |
| CCN(CC)CCN1C(=O)CN=C(c2ccccc2F)c2cc(Cl)ccc21 [Flurazepam, flurazepam] | showed significant effect |  |  |  |  |  |  |  |  |  |  |  |  |  |  |  |  |  |  |  |  |
| CC(=O)[C@H]1CC[C@H]2[C@@H]3CC[C@H]4C[C@](C)(O)CC[C@]4(C)[C@H]3CC[C@]12C [GNX, ganaxolone] |  | (0%) | 0/13 | (60%) | 6/10 | (0%) | 0/13 | (80%) | 8/10 | (0%) | 0/13 | (70%) | 7/10 | (7.7%) | 1/13 | (90%) | 9/10 | (30.8%)* | 4/13 | (90%) | Improvement in protection, in words ([2]; 20 mg/kg i.p., dose-dependent efficacy): significant (p<0.02) improvement in protection; 24-hour Survival (excludes PK rats), survivors/total ([2]; 20 mg/kg i.p., rats): 9/10 |
| CC(=O)[C@H]1CC[C@H]2[C@@H]3CC[C@H]4C[C@H](O)CC[C@]4(C)[C@H]3CC[C@]12C [ALLO, allopregnanolone] |  | (0%) | 0/13 | (60%) | 6/10 | (0%) | 0/13 | (70%) | 7/10 | (0%) | 0/13 | (72%) | 7/9 | (15%) | 2/13 | (90%) | 9/10 | (7.7%) | 1/13 | (90%) | 24-hour Survival (excludes PK rats), survivors/total ([2]; 20 mg/kg i.p., rats): 9/10 |
| Oc1noc2c1CCNC2 [gaboxadol, 4,5,6,7-tetrahydroisoxazolo [5,4-c] pyridine-3-ol] | did not show residual effect |  |  |  |  |  |  |  |  |  |  |  |  |  |  |  |  |  |  |  | Effects in sleep onset and sleep maintenance [3]: failed to show significant effects; Fe ([4]; 2.5 mg single oral dose): 43%; Fe ([4]; 5 mg single oral dose): 45%; Fe ([4]; 10 mg I.V.): 53%; Fe ([4]; 10 mg Oral): 53%; Fe ([4]; 15 mg single oral dose): 50%; Fe ([4]; 20 mg single oral dose): 53%; CL (in CL/F row) ([4]; human, in vivo, iv, 10 mg): 438 mL/min; AUC0-∞ Slope (dose proportionality assessment) ([4]; human, in vivo, po): 0.98; Cmax Slope (dose proportionality assessment) ([4]; human, in vivo, po): 0.95; CL/F ([4]; human, in vivo, po, 2.5 mg): 461 mL/min; CL/F ([4]; human, in vivo, po, 5 mg): 488 mL/min; CL/F ([4]; human, in vivo, po, 10 mg): 476 mL/min; CL/F ([4]; human, in vivo, po, 15 mg): 469 mL/min; CL/F ([4]; human, in vivo, po, 20 mg): 499 mL/min; Psychiatric adverse events [5]: steep increase in psychiatric adverse events; 24-hour survival, in words ([2]; 10 mg/kg, rats): Significant improvements in 24-hour survival; Dose-response profile of protection, in words ([2]; i.p., p=0.071 at 0.5 mg/kg): Potential for inverted U-response profile; Residual effects on other measurements (MSLT, DSST, Tracking, Memory tests, Body Sway, Leeds Sleep Evaluation Questionnaire) [1]: did not show any signs of residual effects |
